Laboratory results reported in US12673945B2, “3-((8-((1H-pyrazol-4-yl)amino)imidazo[1,2-a]pyridin-3-yl)ethinyl)-n-phenylbenzamide derivative, method for preparing same, and pharmaceutical composition containing same as active ingredient for prevention or treatment of cancer” (DAEGU-GYEONGBUK MEDICAL INNOVATION FOUNDATION, priority 2020, dated 2026).

Legend:
[1] = system: Luc_Ba/F3 T315I-Bcr-Abl cell line; test: in vivo pharmacological activity, blood cancer mouse model; parameters: species or system nude mice; conditions: 25 mg/kg oral once a day for 10 days; vehicle group: day 21
Method: (§1) After the mice were adapted to an animal facility for 1 week, the Luc_Ba/F3 T315I-Bcr-Abl cell line emitting luciferase was transplanted into the caudal vein at the density of 5×10^6/animal. Group separation was performed 3 days after the cell line transplantation. On the day of the group separation, 10 mice were randomly assigned to each group of 5 groups so that the luminescence values were equal after luminescence measurement using IVIS spectrum-CT optical imaging equipment.
In addition, the body weight and survival rate of each experimental group were monitored.
Statistical analysis was performed using GraphPad Prism 8, and the statistical significance of the survival rate was confirmed using unpaired t test and log-rank (Mantel-Cox) test.

[2] = body weight in blood cancer mouse model; format: in vivo, nude mice; conditions: 25 mg/kg oral once a day for 10 days
Method: as §1, with “A total of 50 male 5-week-old nude mice (14-17 g) were obtained from Orient Bio Inc. (322, Galmachi-ro, Jungwon-gu, Seongnam-si, Gyeonggi-do, Korea). After” for “After”
5 groups: control (vehicle, 0.5% methylcellulose solution), ponatinib (25 mg/kg), Example 1 (25 mg/kg), Example 1 (50 mg/kg), Example 1 (100 mg/kg).
After the group separation, the compound of Example 1, ponatinib, and a vehicle were orally administered at intervals of once a day for 10 days in order to evaluate the therapeutic efficacy of the drug. The drug effect was confirmed through optical imaging, and the confirmation was carried out before the drug administration (day 0) and on days 4, 11, 18 and 21 after the administration. In addition, the body weight and survival rate of each experimental group were monitored.

SMILES: Cc1ccc(C(=O)Nc2ccc(CN3CCN(C)CC3)c(C(F)(F)F)c2)cc1C#Cc1cnc2cccnn12 [ponatinib, reference compound]
- day after the administration on which all subjects died (FIG. 3) [1]: 35 days
- body weight change during the experimental period (FIG. 4) [2]: no significant body weight change
